Test results from patent US11850279B2, “Platforms and methods for optimizing host antigen presentation and host antitumor and antipathogen immunity” (OHIO STATE INNOVATION FOUNDATION, priority 2016, dated 2023).

Assays:
tumor [1] = test: Anti-tumor activity of CABs (tumor size); type: in vivo, mouse
Description: The zero-length cross linker EDAC promotes attachment of amino-containing molecules to activated B cells, such as CABs (Chlamydia activated B cells). In the bottom panel, the antigen presenting ability of activated B cells (or other professional APCs) can be enhanced by crosslinking desired antigen (protein or peptide) with EDAC prior to in vivo administration.
“Low dose” is therefore defined as 2 μg-8 μg per kg in humans for Flt-3L, and 0.5 μg-2 μg per kg in humans for GM-CSF. “High dose” is defined as any amount above 8 μg/kg of Flt-3L and above 2 μg/kg of GM-CSF.

CD8^+ T cells = test: In vivo CD8+ T cell priming by activated B cells / CABs
Description: In other words, in vivo CD8^+ T cell priming is increased by antecedent treatment with Flt-3L and GM-CSF.
In vivo CD8^+ T cell priming is increased by CHX treatment of activated B cells prior to injection. CHX can boost antigen presenting capacity by increasing survival of activated B cells.
While in this model, GM-CSF/Flt-3L administration improved the efficacy of OVA-loaded B cell treatment, it is important to note that this cytokine treatment can improve the efficacy of intervention with other antigen-loaded antigen presenting cells (e.g. dendritic cell-based vaccine platforms).

endogenous DCs = test: Activation of endogenous DCs by α-GC loaded CABs; conditions: α-GC loading of CABs prior to in vivo administration
Description: In addition to GM-CSF and Flt-3L, antigen presenting capabilities of activated B cells (or other professional APCs) are enhanced by in vitro loading of APCs with α-GC prior to in vivo administration.

tumor [2] = conditions: cited from earlier work
NKT cells = conditions: human, in vivo; cited from earlier work

CCN=C=NCCCN(C)C [EDAC, 1-ethyl 1-3-(3-dimethylaminopropyl)-carbodiimide]
antitumor therapeutic activity (tumor [1]; peptide chemically conjugated to CABs using EDAC vs simple peptide pulsing/loading): increases antitumor therapeutic activity

C[C@@H]1C[C@@H]([C@H](O)CC2CC(=O)NC(=O)C2)C(=O)[C@@H](C)C1 [CHX, Cycloheximide]
in vivo CD8^+ T cell priming (CD8^+ T cells; CHX treatment of activated B cells prior to injection): increased

CCCCCCCCCCCCCCCCCCCCCCCCCC(=O)N[C@@H](CO[C@H]1O[C@H](CO)[C@H](O)[C@H](O)[C@H]1O)[C@H](O)[C@H](O)CCCCCCCCCCCCCC [α-GC, α-Galactosylceramide]
effector function of primed antigen-specific CD8^+ T cells (CD8^+ T cells; α-GC-loaded CABs): enhance | tumor size (tumor [1]; α-GC loaded activated B cells, effect dependent on NKT cells): more effectively reduce tumor size | activation of endogenous DCs (endogenous DCs): dramatically increase | tumor growth (tumor [2]): inhibit tumor growth | NKT cells in the peripheral blood of treated cancer patients (NKT cells): fell to undetectable levels
